Assay results published in US20100168125A1, “INDOLIZINES AND AZA-ANALOG DERIVATIVES THEREOF AS CNS ACTIVE COMPOUNDS” (priority 2007, published 2010).
Like-named read-outs stand apart in the source and are kept apart here.

Experiments:
[1] = target: T1, human D2short receptor (Homo sapiens, UniProt P14416); experiment: radioligand binding with [^3H]spiperone, D2short; conditions: read-out: Ki D2sh
T1 construct: expressed in transfected cells; host or cells: Chinese hamster ovary (CHO) cells, membranes
Procedure: (§1) For the determination of binding affinity to the receptors of the dopamine D2 family membranes were established carrying the human D2long, D2short, D3 or D4.4 receptor subtype expressed in Chinese hamster ovary cell lines. In principle, the binding experiments started when incubating an appropriate amount of membrane with the radioligand [^3H]spiperone and the particular test compounds diluted in a wide range of different concentrations from subnanomolar up to micromolar.

[2] = target: T2, 5-HT1A receptor (Sus scrofa, UniProt A0A4X1UTF5); experiment: radioligand binding, porcine cortical membranes, [^3H]8-OH-DPAT and [^3H]WAY 100635
T2 construct: membrane preparations from porcine cortical material; from tissue; host or cells: porcine cerebral cortex membranes
T2 sequence (A0A4X1UTF5 1-422): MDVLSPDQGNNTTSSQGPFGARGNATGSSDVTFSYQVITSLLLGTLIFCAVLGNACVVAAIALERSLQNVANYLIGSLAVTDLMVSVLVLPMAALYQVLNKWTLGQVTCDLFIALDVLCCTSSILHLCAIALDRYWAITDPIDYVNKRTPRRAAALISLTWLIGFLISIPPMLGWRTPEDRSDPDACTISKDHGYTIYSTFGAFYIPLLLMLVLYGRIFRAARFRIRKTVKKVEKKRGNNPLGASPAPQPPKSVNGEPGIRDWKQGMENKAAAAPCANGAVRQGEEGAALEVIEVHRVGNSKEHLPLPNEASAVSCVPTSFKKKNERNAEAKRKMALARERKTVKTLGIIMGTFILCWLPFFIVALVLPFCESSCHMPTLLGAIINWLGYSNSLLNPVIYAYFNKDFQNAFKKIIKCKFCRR

[3] = target: T3, human D3 receptor (Homo sapiens, UniProt P35462); experiment: radioligand binding with [^3H]spiperone, D3
T3 construct: expressed in transfected cells; host or cells: Chinese hamster ovary (CHO) cells, membranes
Procedure: as §1

[4] = target: T4, human D4.4 receptor (Homo sapiens, UniProt P21917); experiment: radioligand binding with [^3H]spiperone, D4.4
T4 construct: expressed in transfected cells; host or cells: Chinese hamster ovary (CHO) cells, membranes
T4 sequence (P21917 1-419): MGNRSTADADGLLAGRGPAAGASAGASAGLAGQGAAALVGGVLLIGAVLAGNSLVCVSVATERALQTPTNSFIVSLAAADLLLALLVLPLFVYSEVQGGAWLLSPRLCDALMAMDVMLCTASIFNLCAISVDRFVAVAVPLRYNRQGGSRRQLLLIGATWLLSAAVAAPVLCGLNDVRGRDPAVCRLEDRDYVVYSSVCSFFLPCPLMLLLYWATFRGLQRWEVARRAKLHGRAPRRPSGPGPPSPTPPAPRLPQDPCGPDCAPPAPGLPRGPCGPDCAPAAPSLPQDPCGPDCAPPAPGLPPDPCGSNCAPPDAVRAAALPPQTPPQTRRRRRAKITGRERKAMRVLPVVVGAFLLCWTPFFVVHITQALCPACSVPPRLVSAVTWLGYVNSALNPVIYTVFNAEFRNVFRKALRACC
Procedure: as §1

[5] = target: dopamine D2short receptor (Homo sapiens, UniProt P14416); experiment: [^35S]GTPγS-incorporation assay, intrinsic activity
[6] = target: T5, 5-HT2 receptor (Sus scrofa, UniProt P50129); experiment: radioligand binding, porcine cortical membranes, [^3H]ketanserin
T5 construct: membrane preparations from porcine cortical material; from tissue; host or cells: porcine cerebral cortex membranes

[7] = target: T6, human D2long receptor (Homo sapiens, UniProt P14416); experiment: radioligand binding with [^3H]spiperone, D2long; conditions: read-out: Ki D2lo
T6 construct: expressed in transfected cells; host or cells: Chinese hamster ovary (CHO) cells, membranes
Procedure: as §1

[8] = [^3H]spiperone, CHO membranes, mean of 2 to 4 experiments
[9] = read-out: D2short: [^35S]GTPγS intrinsic activity, % activity of quinpirol
[10] = porcine cortical membranes, [^3H]ketanserin
[11] = read-out: D2short: [^35S]GTPγS intrinsic activity
[12] = ether alkylene linker compounds

T5 sequence (P50129 whole entry): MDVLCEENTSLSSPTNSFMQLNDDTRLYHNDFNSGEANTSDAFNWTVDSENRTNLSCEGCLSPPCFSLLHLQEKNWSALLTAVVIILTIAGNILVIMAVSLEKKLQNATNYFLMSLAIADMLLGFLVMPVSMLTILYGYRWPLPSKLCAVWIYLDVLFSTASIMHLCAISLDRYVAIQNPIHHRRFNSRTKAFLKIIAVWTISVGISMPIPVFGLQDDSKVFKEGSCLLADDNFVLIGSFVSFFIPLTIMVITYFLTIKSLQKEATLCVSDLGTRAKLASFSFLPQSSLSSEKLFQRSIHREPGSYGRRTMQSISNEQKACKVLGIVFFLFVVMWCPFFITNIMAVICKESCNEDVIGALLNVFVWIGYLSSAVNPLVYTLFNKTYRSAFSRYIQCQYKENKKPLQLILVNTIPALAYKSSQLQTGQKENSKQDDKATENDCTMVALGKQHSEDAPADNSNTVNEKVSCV
T6 sequence (P14416 whole entry): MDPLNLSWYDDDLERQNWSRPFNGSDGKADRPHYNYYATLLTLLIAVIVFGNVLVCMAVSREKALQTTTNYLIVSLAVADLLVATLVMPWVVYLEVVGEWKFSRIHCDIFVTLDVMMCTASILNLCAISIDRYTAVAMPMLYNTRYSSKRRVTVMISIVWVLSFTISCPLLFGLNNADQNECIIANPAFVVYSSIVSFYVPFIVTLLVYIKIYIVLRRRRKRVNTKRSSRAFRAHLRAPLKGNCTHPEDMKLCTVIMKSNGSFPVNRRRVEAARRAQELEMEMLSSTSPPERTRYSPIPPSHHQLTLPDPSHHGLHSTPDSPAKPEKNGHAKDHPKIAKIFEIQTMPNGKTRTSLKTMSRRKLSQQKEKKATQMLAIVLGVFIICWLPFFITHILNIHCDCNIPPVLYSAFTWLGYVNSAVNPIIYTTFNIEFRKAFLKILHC
T1 sequence (P14416 1-414 isoform P14416-2): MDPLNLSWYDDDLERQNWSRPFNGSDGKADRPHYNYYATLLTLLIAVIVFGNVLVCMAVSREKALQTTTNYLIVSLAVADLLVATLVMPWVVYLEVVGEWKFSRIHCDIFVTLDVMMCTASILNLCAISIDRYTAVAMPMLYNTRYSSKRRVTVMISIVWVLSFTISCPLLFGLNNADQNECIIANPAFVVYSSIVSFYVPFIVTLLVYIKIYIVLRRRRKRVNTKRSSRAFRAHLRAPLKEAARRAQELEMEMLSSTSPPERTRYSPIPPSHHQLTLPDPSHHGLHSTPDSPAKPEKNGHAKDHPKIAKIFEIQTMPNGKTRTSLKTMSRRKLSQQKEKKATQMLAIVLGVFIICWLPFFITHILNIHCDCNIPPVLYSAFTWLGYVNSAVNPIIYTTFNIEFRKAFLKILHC
Sequence of dopamine D2short receptor (P14416 1-414 isoform P14416-2): as above
T3 sequence (P35462 whole entry): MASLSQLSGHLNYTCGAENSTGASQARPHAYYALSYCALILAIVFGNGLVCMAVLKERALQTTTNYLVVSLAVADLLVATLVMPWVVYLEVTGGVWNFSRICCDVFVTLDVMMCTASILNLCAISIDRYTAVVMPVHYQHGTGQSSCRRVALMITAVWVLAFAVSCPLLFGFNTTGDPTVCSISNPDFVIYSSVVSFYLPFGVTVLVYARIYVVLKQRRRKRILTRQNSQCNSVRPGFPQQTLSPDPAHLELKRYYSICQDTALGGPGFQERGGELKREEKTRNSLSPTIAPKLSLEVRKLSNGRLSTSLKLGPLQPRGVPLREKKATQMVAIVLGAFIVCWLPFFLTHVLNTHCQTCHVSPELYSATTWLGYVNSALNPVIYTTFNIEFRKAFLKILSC

SMILES	Ki [1, 8] [nM]	Ki ([2]; porcine cortical membranes) [nM]	Ki [3, 8] [nM]	melting point [°C]	Ki [4, 8] [nM]	Emax [5, 9] [%]	Ki [6, 10] [nM]	Ki [7, 8] [nM]	Emax [5, 11] [%]	D2short: [^35S]GTPγS intrinsic activity ([5]; % activity of quinpirol)	Ki [1, 12] [nM]	Ki [2, 12] [nM]	Ki [3, 12] [nM]	ratio D2lo/D3 ([3]; ratio of Ki values)	Ki [4, 12] [nM]	Ki [6, 12] [nM]	Ki [7, 12] [nM]
O=Cc1c(OCCCCN2CCN(c3cccc(Cl)c3Cl)CC2)nn2ccccc12 [Example E4, 2-[4-[4-(2,3-Dichlorophenyl)piperazin-1-yl]butoxy]pyrazolo[1,5-a]pyridine-3-carbaldehyde]	< 30	< 30	< 30	100	< 30	15 to 40	30 to 300	< 30	–	–	–	–	–	–	–	–	–
O=Cc1cnn2cccc(OCCCCN3CCN(c4ccccc4Cl)CC3)c12 [Example E12, 4-[4-[4-(2-Chlorophenyl)piperazin-1-yl]butoxy]pyrazolo[1,5-a]pyridine-3-carbaldehyde]	< 30	< 30	30 to 300	125	< 30	–	301 to 3000	< 30	15 to 40	–	–	–	–	–	–	–	–
COc1ccccc1N1CCN(CCCCOc2cccn3ncc(C=O)c23)CC1 [Example E11, 4-[4-[4-(2-Methoxyphenyl)piperazin-1-yl]butoxy]pyrazolo[1,5-a]pyridine-3-carbaldehyde]	< 30	< 30	30 to 300	139	< 30	< 15	301 to 3000	< 30	–	–	–	–	–	–	–	–	–
COc1ccc(N2CCN(CCCCOc3ccn4ncc(C=O)c4c3)CC2)cc1 [Example E24, 5-[4-[4-(4-Methoxyphenyl)piperazin-1-yl]butoxy]pyrazolo[1,5-a]pyridine-3-carbaldehyde]	30 to 300	30 to 300	301 to 3000	114	301 to 3000	< 15	> 3000	30 to 300	–	–	–	–	–	–	–	–	–
Clc1ccccc1N1CCN(CCCCOc2ccn3ncc(I)c3c2)CC1 [Example E50, 5-[4-[4-(2-Chlorophenyl)piperazin-1-yl]butoxy]-3-iodo-pyrazolo[1,5-a]pyridine]	–	30 to 300	–	94	–	–	301 to 3000	–	–	–	–	–	–	–	–	–	–
ON=Cc1cnn2ccc(OCCCCN3CCN(c4ccccc4Cl)CC3)cc12 [Example E35, (s-cis) 5-[4-[4-(2-Chlorophenyl)piperazin-1-yl]butoxy]pyrazolo[1,5-a]pyridine-3-carbaldehyde oxime]	< 30	< 30	< 30	160	< 30	–	30 to 300	< 30	–	A (A=Full antagonist (<15%))	–	–	–	–	–	–	–
Clc1cccc(N2CCN(CCCCOc3ccn4ncc(Br)c4c3)CC2)c1Cl [Example E42, 3-Bromo-5-[4-[4-(2,3-dichlorophenyl)piperazin-1-yl]butoxy]pyrazolo[1,5-a]pyridine]	30 to 300	301 to 3000	< 30	132	301 to 3000	15 to 40	> 3000	30 to 300	–	–	–	–	–	–	–	–	–
Clc1cccc(N2CCN(CCCCOc3cccn4nccc34)CC2)c1Cl [Example E7, 4-[4-[4-(2,3-Dichlorophenyl)piperazin-1-yl]butoxy]pyrazolo[1,5-a]pyridine]	< 30	30 to 300	< 30	91	< 30	< 15	301 to 3000	< 30	–	–	–	–	–	–	–	–	–
COc1ccccc1N1CCN(CCCCOc2ccn3nnnc3c2)CC1 [Example E97, 7-[4-[4-(2-Methoxyphenyl)piperazin-1-yl]butoxy]tetrazolo[1,5-a]pyridine]	< 30	< 30	< 30	124	< 30	–	> 3000	< 30	–	–	–	–	–	–	–	–	–
Clc1cccc(N2CCN(CCCCOc3ccc4ccnn4c3)CC2)c1Cl [Example E51, 6-[4-[4-(2,3-Dichlorophenyl)piperazin-1-yl]butoxy]pyrazolo[1,5-a]pyridine]	< 30	30 to 300	< 30	97	< 30	< 15	30 to 300	< 30	–	–	–	–	–	–	–	–	–
Clc1ccccc1N1CCN(CCCCOc2ccc3ccnn3c2)CC1 [Example E53, 6-[4-[4-(2-Chlorophenyl)piperazin-1-yl]butoxy]pyrazolo[1,5-a]pyridine]	< 30	< 30	< 30	86	< 30	< 15	301 to 3000	< 30	–	–	–	–	–	–	–	–	–
Clc1ccccc1N1CCN(CCCCOc2ccn3nnnc3c2)CC1 [Example E98, 7-[4-[4-(2-Chlorophenyl)piperazin-1-yl]butoxy]tetrazolo[1,5-a]pyridine]	< 30	< 30	< 30	101	< 30	–	301 to 3000	< 30	–	–	–	–	–	–	–	–	–
O=Cc1cnn2cccc(OCCCCN3CCN(c4cccc(Cl)c4Cl)CC3)c12 [Example E10, 4-[4-[4-(2,3-Dichlorophenyl)piperazin-1-yl]butoxy]pyrazolo[1,5-a]pyridine-3-carbaldehyde]	< 30	30 to 300	< 30	128	30 to 300	–	30 to 300	< 30	15 to 40	–	–	–	–	–	–	–	–
Clc1ccccc1N1CCN(CCCCOc2ccn3ncc(Br)c3c2)CC1 [Example E44, 3-Bromo-5-[4-[4-(2-chlorophenyl)piperazin-1-yl]butoxy]pyrazolo[1,5-a]pyridine]	–	–	–	84	–	–	–	–	15 to 40	–	–	–	–	–	–	–	–
Clc1cccc(N2CCN(CCCCOc3ccn4nnnc4c3)CC2)c1Cl [Example E63, 7-[4-[4-(2,3-Dichlorophenyl)piperazin-1-yl]butoxy]tetrazolo[1,5-a]pyridine]	< 30	30 to 300	< 30	138	< 30	–	30 to 300	< 30	–	–	–	–	–	–	–	–	–
Nc1cccc(N2CCN(CCCCOc3ccn4nccc4c3)CC2)c1 [Example E66, 5-[4-[4-(3-Aminophenyl)piperazin-1-yl]butoxy]pyrazolo[1,5-a]pyridine]	–	–	–	86	–	–	–	–	–	–	–	–	–	–	–	–	–
O=[N+]([O-])c1cccc(N2CCN(CCCCOc3ccn4nccc4c3)CC2)c1 [Example E65, 5-[4-[4-(3-Nitrophenyl)piperazin-1-yl]butoxy]pyrazolo[1,5-a]pyridine]	–	–	–	73	–	–	–	–	–	–	–	–	–	–	–	–	–
COc1ccccc1N1CCN(CCCCOc2ccn3ncc(C)c3c2)CC1 [Example E75, 5-[4-[4-(2-Methoxyphenyl)piperazin-1-yl]butoxy]-3-methylpyrazolo[1,5-a]pyridine]	< 30	< 30	< 30	–	< 30	< 15	301 to 3000	< 30	–	–	–	–	–	–	–	–	–
COc1ccccc1N1CCN(CCCCOc2cc3ccccn3n2)CC1 [Example E2, 2-[4-[4-(2-Methoxyphenyl)piperazin-1-yl]butoxy]pyrazolo[1,5-a]pyridine]	< 30	< 30	< 30	–	< 30	< 15	301 to 3000	< 30	–	–	16	1.3	12	0.83	17	910	10
O=Cc1cnn2c(OCCCCN3CCN(c4ccccc4Cl)CC3)cccc12 [Example E62, 7-[4-[4-(2-Chlorophenyl)piperazin-1-yl]butoxy]pyrazolo[1,5-a]pyridine-3-carbaldehyde]	< 30	< 30	30 to 300	–	30 to 300	–	30 to 300	30 to 300	15 to 40	–	–	–	–	–	–	–	–
